This is an account of results in ChEMBL document CHEMBL1123596, “5-fluoro- and 8-fluorotrimetoquinol: selective beta 2-adrenoceptor agonists” (J Med Chem, 1987).

Data set [1] addresses Beta-2 adrenergic receptor (Cavia porcellus) (UniProt Q8K4Z4). The following applies: Trachea.
The nature of data set [2]: Acid dissociation constant was determined. It counts as ADME.
The target in data set [3] is Beta-1 adrenergic receptor (Cavia porcellus) (UniProt B0FL73).
Data set [4] has the same target. The source holds these as a separate data set.

Structures can show the parent of a compound that is named as a salt.

Beta-1 adrenergic receptor (Cavia porcellus), sequence (B0FL73 1-467): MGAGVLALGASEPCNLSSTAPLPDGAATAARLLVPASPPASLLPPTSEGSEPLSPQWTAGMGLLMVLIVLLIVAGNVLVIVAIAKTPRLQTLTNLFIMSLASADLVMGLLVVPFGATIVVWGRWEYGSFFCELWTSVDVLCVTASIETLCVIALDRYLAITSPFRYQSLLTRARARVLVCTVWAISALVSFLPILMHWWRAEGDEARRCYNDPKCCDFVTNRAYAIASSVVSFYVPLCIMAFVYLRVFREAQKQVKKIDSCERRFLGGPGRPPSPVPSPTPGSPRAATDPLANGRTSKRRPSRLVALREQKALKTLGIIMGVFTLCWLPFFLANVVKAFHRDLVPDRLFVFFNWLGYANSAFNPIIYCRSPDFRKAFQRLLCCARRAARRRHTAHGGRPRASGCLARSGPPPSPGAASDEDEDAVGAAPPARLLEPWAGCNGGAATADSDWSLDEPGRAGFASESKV
Beta-2 adrenergic receptor (Cavia porcellus), sequence (Q8K4Z4 whole entry, looked up): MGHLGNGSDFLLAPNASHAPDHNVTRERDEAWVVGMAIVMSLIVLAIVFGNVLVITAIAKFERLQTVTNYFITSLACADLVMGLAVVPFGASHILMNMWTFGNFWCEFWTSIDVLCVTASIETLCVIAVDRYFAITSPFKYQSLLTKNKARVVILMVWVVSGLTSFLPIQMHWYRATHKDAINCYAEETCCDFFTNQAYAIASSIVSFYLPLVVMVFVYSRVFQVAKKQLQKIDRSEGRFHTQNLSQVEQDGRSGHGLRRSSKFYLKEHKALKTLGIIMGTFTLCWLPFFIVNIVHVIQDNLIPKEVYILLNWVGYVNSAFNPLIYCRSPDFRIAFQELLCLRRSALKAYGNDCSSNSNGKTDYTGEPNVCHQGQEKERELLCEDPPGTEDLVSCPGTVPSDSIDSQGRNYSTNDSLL

As to `COc1cc(CC2NCCc3c2cc(O)c(O)c3F)cc(OC)c1OC` (stereo not drawn), the IAR in data set [1] was 0.95; in data set [3] it was 0.96. Also, the pKa (usually the pH at which an ionisable group is half protonated) in data set [2] amounted to 8.11.

`COc1cc(CC2NCCc3cc(O)c(O)c(F)c32)cc(OC)c1OC` (stereo not drawn): the pKa in data set [2] was found to be 7.86.

In the case of `COc1cc(CC2NCCc3cc(O)c(O)cc32)cc(OC)c1OC` (stereo not drawn) [TRETOQUINOL HYDROCHLORIDE], the pD2 in data set [4] was 7.52. Further, the IAR in data set [1] amounted to 0.95; in data set [3], 1. Further, the pKa in data set [2] amounted to 8.77.
